# Measured values published in patent US20050101632A1, “Method for the treatment of inflammation” (priority 2000, published 2005).
# Test system: oxazolone-induced hypersensitivity reaction in oxazolone-sensitized mice
# Assay: Oxazolone-induced delayed-type hypersensitivity (dermal sensitization) in mice
# Assay type: in vivo, CD1 mice
smiles,measurement,setting,value
C[C@]12CCC(=O)C=C1CC[C@@H]1[C@@H]2[C@@H](O)C[C@@]2(C)[C@H]1CC[C@]2(O)C(=O)CO [hydrocortisone],body weight (systemic effect),"1% hydrocortisone topical during the challenges, FIG. 7",decrease of body weight
same,suppression of mean increase of ear thickness (MIET),"first challenge (acute inflammation), 1% topical twice daily, FIG. 4",74%
same,erythema of the ear,"first challenge, topical twice daily",reduced erythema of the ear
